Test results: PubChem BioAssay AID588780 (Sanford-Burnham Center for Chemical Genomics, 2011)
pIC50: −log10 of the molar value. The source made the active and inactive calls.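 Rule for the calls: active = compounds whose fitted half-maximal concentration in the cell-protection dose series is at or below a set limit; inactive = the rest.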

The compounds below were run on H9c2 cardiomyocytes, 2-deoxyglucose stress, ATP luminescence, 2 h (assay: protection of cardiomyocytes from 2-deoxyglucose injury, dose response, cell-based, 2-deoxyglucose stress, uHTS hits (AID 588780)).

SMILES | pIC50 | IC50
C[C@@H]1CN([C@@H](C)CO)C(=O)c2cc(NC(=O)Nc3ccccc3)ccc2O[C@H]1CN(C)C(=O)Nc1cccc2ccccc12 | 4.80 | –
CC(=O)Nc1ccc2c(c1)[nH]c(=O)c1ccccc12 | – | 76.5 µM (inactive)
O=c1[nH]c2ccccc2c2ccccc12 | – | > 79 µM (inactive)
CCCCCCn1cnc2c(c1=O)c1nc3ccccc3nc1n2/N=C/c1ccco1 | – | > 79 µM (inactive)
NC(=O)c1ccc(NC(=O)COc2cccc3c2CCNC3=O)cc1 | – | > 79 µM (inactive)
Cc1ccc(NC(=O)c2nc[nH]c2C(=O)NCCCNC(=O)c2[nH]cnc2C(=O)Nc2ccc(C)cc2)cc1 | 4.67 | –
COc1ccc2[nH]c(=O)c(-c3nnn(-c4ccc(F)cc4)n3)cc2c1 | – | > 79 µM (inactive)
COc1cc(-c2cc(C(=O)Nc3cccc(C(C)=O)c3)c3ccccc3n2)cc(OC)c1OC | – | > 79 µM (inactive)
Cc1ccc(C(=O)OCC(=O)Nc2sccc2C(N)=O)cc1NC(=O)c1ccco1 | – | > 79 µM (inactive)
COc1cc(-c2cc3nc(NCCOc4ccccc4)ccn3n2)cc(OC)c1OC | 4.86 | –
N#CCCN(C(=O)COC(=O)CCc1nc2ccccc2c(=O)[nH]1)c1ccc(F)cc1 | – | > 79 µM (inactive)
COc1ccc(Nc2nnc(SCc3cc(=O)n4ccsc4n3)s2)cc1 | 4.85 | –
CC(C)COP(=O)(OCC(C)C)C(Nc1ccccc1)c1ccc2c(c1)OCO2 (stereo unspecified) | – | > 79 µM (inactive)
CCCCOc1ccc(C(=O)NCC(=O)N(C)Cc2nc3ccccc3c(=O)[nH]2)cc1 | – | > 79 µM (inactive)
CCn1c2ccccc2c2nc3cc(OC)c(OC)cc3nc21 | – | > 79 µM (inactive)
N#CCSc1nc2cc(C(=O)N3CCC(C(N)=O)CC3)ccc2c2nc3ccccc3n12 | 4.82 | –
CC1(C)Cc2c(c(N3CCOCC3)nc3sc4c(NN)ncnc4c23)CS1 | – | > 79 µM (inactive)
Cc1sc2nc(CSCC(=O)N(C)c3ccccc3)[nH]c(=O)c2c1C | 4.53 | –
CC(=C/c1ccc(C(C)C)cc1)/C=N/NC(=O)c1ccncc1 | – | > 79 µM (inactive)
CC(=O)Nc1cccc(-c2cc(NC=O)c3ncc(-c4cccc(C(C)=O)c4)n3c2)c1 | – | > 79 µM (inactive)
O=C(COC(=O)CCc1nc2ccccc2c(=O)[nH]1)Nc1c(Cl)cccc1C(F)(F)F | – | > 79 µM (inactive)
Oc1ccc(Cl)cc1C=Nc1ccc2c3c(cccc13)CC2 | – | > 79 µM (inactive)
CCN1C(=O)/C(=C/c2nc3ccccc3c(=O)[nH]2)c2ccccc21 | – | > 79 µM (inactive)
CN1CCC(N(C)C(=O)CCc2nc3ccccc3c(=O)[nH]2)CC1 | – | > 79 µM (inactive)

SMILES | pIC50 | IC50
COc1cc(C(=O)Nc2cccc(-c3nnc(-c4ccco4)o3)c2)ccc1OC(C)=O | – | > 79 µM (inactive)
COc1cc(NC(=O)c2cc([N+](=O)[O-])ccc2NC(=O)CN2CCN(c3ccccn3)CC2)cc(OC)c1 | – | > 79 µM (inactive)
CN(C)N(Cc1ccccc1)C(=O)C(O)(c1ccccc1)c1ccccc1 | – | > 79 µM (inactive)
COc1ccccc1-c1cc(C(=O)N/N=C/C=C/c2ccccc2[N+](=O)[O-])c2ccccc2n1 | – | > 79 µM (inactive)
CCCC(=O)Nc1cc(C)c2c(=O)oc3ccccc3c2n1 | – | > 79 µM (inactive)
COc1ccc(N2CC(C(=O)NCc3n[nH]c(=O)c4ccccc34)CC2=O)cc1 (stereo unspecified) | – | > 79 µM (inactive)
CCCCn1nc(C(=O)Oc2ccc3c(C)cc(=O)oc3c2)c2ccccc2c1=O | – | > 79 µM (inactive)
C/C(=N/NC(=O)c1cccs1)c1cccc(NC(=O)C2CC2)c1 | – | > 79 µM (inactive)
CCCc1cc2c(cc1NC(=O)c1ccc(Br)cc1)OCO2 | 4.53 | –
CCOC(=O)c1c(C)nc2sc3c(=O)n(-c4ccc(C(C)=O)cc4)cnc3c2c1-c1ccc(OC)cc1 | – | > 79 µM (inactive)
Cc1ccccc1C(C(=O)NCc1ccccc1)N(Cc1ccco1)C(=O)c1ccccn1 (stereo unspecified) | 4.62 | –
CCCN(CC(=O)Nc1ccccc1C)C(=O)Cc1n[nH]c(=O)c2ccccc12 | – | > 79 µM (inactive)
COc1ccccc1NS(=O)(=O)c1cc(NC(=O)Cc2n[nH]c(=O)c3ccccc23)ccc1Cl | 4.61 | –
Cc1ccc(-c2n[nH]c(=O)c3ccccc23)cc1S(N)(=O)=O | – | > 79 µM (inactive)
CCc1nc(N2CCN(C(=O)c3ccco3)CC2)c2oc3ccccc3c2n1 | – | > 79 µM (inactive)
CCCC(=O)Nc1nc2ccc(NC(=O)c3ccc(Br)o3)cc2s1 | – | > 79 µM (inactive)
CC(Oc1ccc(Br)cc1)C(=O)Nc1nc(-c2ccccn2)cs1 (stereo unspecified) | – | > 79 µM (inactive)
O=c1[nH]c(CSc2nnc(-c3cccnc3)n2C2CCCCC2)nc2ccccc12 | – | > 79 µM (inactive)
CC(OC(=O)c1cc2c(ccc3ccccc32)oc1=O)c1nc2ccccc2s1 (stereo unspecified) | 4.81 | –
CN(C)S(=O)(=O)c1ccc2[nH]cc(/C=C/c3nc4ccccc4c(=O)n3-c3ccccc3)c2c1 | – | > 79 µM (inactive)
Cc1nn(C)cc1C(C(=O)NC1CCCCC1)N(C(=O)Cc1cccs1)c1ccc(Cl)cc1 (stereo unspecified) | 4.56 | –
COc1ccc2nc(Nc3nc(CSc4nc5ccccc5[nH]4)cc(=O)[nH]3)nc(C)c2c1 | – | > 79 µM (inactive)
COc1cc(/C=C/C(=O)CC(=O)/C=C/c2ccc(O)c(OC)c2)ccc1O | – | > 79 µM (inactive)
CC(C)(C)N=Cc1c(O)ccc2oc3c(c12)CCCC3 | – | > 79 µM (inactive)

SMILES | pIC50 | IC50
COc1cc(NS(=O)(=O)c2ccc3ccccc3c2)c2ncccc2c1 | 4.74 | –
C[C@@H](NC(=O)c1nc[nH]c1C(=O)NCC(=O)OCc1ccccc1)c1ccccc1 | – | > 79 µM (inactive)
O=C(NCC(=O)N(Cc1cccs1)C(C(=O)NC1CCCCC1)c1ccco1)c1cccs1 (stereo unspecified) | 4.82 | –
CC(C)=NNc1cnnc2ccc([N+](=O)[O-])cc12 | 4.91 | –
NC(=O)C1=C(c2ccccc2)c2ccccc2C1=O | – | > 79 µM (inactive)
O=C(COc1ccc(F)cc1)N/N=C/c1cccc2cccnc12 | – | > 79 µM (inactive)
COc1ccc(Br)cc1/C=N/NC(=O)CNC(=O)/C=C/c1ccccc1 | – | > 79 µM (inactive)
CC(C)c1ccc(S(=O)(=O)N2CCN(CC(=O)c3ccc(O)c(O)c3)CC2)cc1 | 4.67 | –
NC(=O)c1cccc(Nc2nc(C(N)CCc3ccccc3)cs2)n1 (stereo unspecified) | – | > 79 µM (inactive)
COc1cc(/C=c2\s/c(=C(/C#N)C(=O)N3CCCC3)n(-c3ccccc3)c2=O)ccc1O | 4.60 | –
C[C@H](NC(=O)c1nc[nH]c1C(=O)NCC(=O)OCc1ccccc1)c1ccccc1 | 4.87 | –
Cc1cc(C)c(C(=O)CC(=O)c2ccccc2Cl)c(O)c1 | – | > 79 µM (inactive)
O=C(COC(=O)Cc1n[nH]c(=O)c2ccccc12)Nc1ccc(Cl)cc1F | – | > 79 µM (inactive)
Cc1ccc2nsnc2c1S(=O)(=O)N(Cc1ccco1)Cc1cc2cccc(C)c2[nH]c1=O | 4.59 | –
COc1c(O)cccc1/C=N/NC(=O)Cn1ccnc1C | – | > 79 µM (inactive)
Cc1ccc(N=Cc2cc(Br)cc(Cl)c2O)cc1 | – | > 79 µM (inactive)
O=C(N/N=C/c1ccc2c(c1)OCO2)c1ccc(NC(=O)c2ccccc2Cl)cc1 | 4.79 | –
O=C(Cn1[nH]c(=O)c2ccccc2c1=O)OCC(=O)N1CCCc2ccccc21 | – | 51.3 µM (inactive)
O=C1NC(c2ccc(Cl)c([N+](=O)[O-])c2)Nc2ccccc21 (stereo unspecified) | – | > 79 µM (inactive)
NC(=O)c1cccc(Nc2nc(C(N)COCc3ccccc3)cs2)n1 (stereo unspecified) | – | > 79 µM (inactive)
Cc1cc(Nc2ccccc2C(=O)O)nc2nc3ccccc3c(=O)n12 | – | > 79 µM (inactive)
CCOC(=O)c1cnc(Nc2nc3ccccc3o2)nc1CSc1nnc(C)s1 | – | > 79 µM (inactive)
COc1cccc(/C=N/Nc2nc3ccccc3n3cnnc23)c1 | – | > 79 µM (inactive)
O=C(Oc1ccc2c(-c3ccccc3)cc(=O)oc2c1)C1CCCCC1 | – | 32.9 µM (inactive)

SMILES | pIC50 | IC50
CCCCNC(=O)c1cn(-c2ccc(OCC)cc2)c(=O)c2cc(OC)c(OC)cc12 | – | 41.7 µM (inactive)
COc1ccc(Br)cc1C(=O)Nc1cccc(NC(=O)c2ccco2)c1 | – | > 79 µM (inactive)
Oc1c(Br)cc(Br)cc1C=NCc1ccc(F)cc1 | – | > 79 µM (inactive)
Cc1nc(NC(=O)c2cc3c(C)nn(-c4ccccc4)c3s2)sc1C(=O)Nc1ccccc1 | – | > 79 µM (inactive)
COc1cccc(C(=O)Nc2nnc(-c3ccc(Cl)cc3)o2)c1 | 4.83 | –
COc1cc2ccccc2cc1C(=O)NNC(=O)c1ccccc1O | – | > 79 µM (inactive)
CN1CCc2nc3ccccc3c(C(=O)OCC(=O)N(CCC#N)c3ccccc3)c2C1 | – | 67.6 µM (inactive)
COc1ccc2[nH]c(=O)c(CNc3ccc(C)c(C)c3)cc2c1 | – | 49.8 µM (inactive)
COc1cccc(Cn2nc(C(=O)O)c3ccccc3c2=O)c1 | – | 32.3 µM (inactive)
COC(=O)Cc1n[nH]c(=O)c2ccccc12 | – | > 79 µM (inactive)
O=C1N[C@H](Cc2c[nH]c3ccccc23)COC(=O)[C@H](Cc2ccc(F)cc2)C/C=C\C[C@H]1CC(=O)N(CCO)Cc1ccccc1 | 4.75 | –
COc1ccc(OCC(=O)N/N=C/c2cccc3cccnc23)cc1 | – | 38.6 µM (inactive)
COc1ccccc1CN(Cc1nc2ccccc2c(=O)[nH]1)S(=O)(=O)c1ccc2ccccc2c1 | – | > 79 µM (inactive)
CCCN1CCN(C(=O)CCc2nnc3ccc(N4CCN(c5cccc(OC)c5)CC4)nn23)CC1 | – | > 79 µM (inactive)
CC(=O)c1cccc(-c2cnc3c(NC=O)cc(-c4cccc(C(=O)N(C)C)c4)cn23)c1 | 4.71 | –
COc1ccc(C(=O)Nc2cc(C)nn2-c2nc3ccccc3[nH]2)c(OC)c1 | 4.91 | –
COc1ccc(CCNC(=O)c2cc3c(C)nccc3[nH]c2=O)cc1OC | 4.79 | –
COc1nc(N/N=C/c2cc3c(cc2Br)OCO3)nc(N2CCOCC2)n1 | 4.80 | –
CCN(CC)S(=O)(=O)c1cccc(C(=O)N/N=C/c2ccccn2)c1 | – | > 79 µM (inactive)
O=S(=O)(c1ccccc1)N1CCN(c2nc(-c3cccnc3)nc3ccccc23)CC1 | 4.91 | –
COc1cc(-c2cc(C(=O)OCC(=O)NC3CC3)c3ccccc3n2)cc(OC)c1OC | 4.97 | –
O=C(OCC(=O)N1CCCCCC1)c1n[nH]c(=O)c2ccccc12 | – | > 79 µM (inactive)
COc1ccc(NS(=O)(=O)c2ccc3ccccc3c2)c2ncccc12 | – | > 79 µM (inactive)
Cc1ccc(NC(=O)c2nc[nH]c2C(=O)NCCCCCCNC(=O)c2[nH]cnc2C(=O)Nc2ccc(C)cc2)cc1 | – | > 79 µM (inactive)
